Assay results reported in patent US4336375A, “Cephalosporanic acid derivatives” (American Cyanamid Company, priority 1980, dated 1982).
In brackets after ≈: the same amount, converted by molar mass. Read-outs that look alike come from different tables or passages of the source.

What was measured:
Assay type in all cases: cell-based
[1] = test system: Klebsiella pneumoniae UR76-1; assay: In vitro MIC, agar dilution, Klebsiella pneumoniae UR76-1; conditions: read-out: Minimal Inhibitory Concentration
Procedure: (§1) The in vitro activity of representative compounds of the present invention are given in the following Table I in terms of minimal inhibitory concentration. The test used was the standard agar dilution test using a Steers multiple inocula replicator and incubating at 35° C. for 18 hours in conventional nutrient agar.

[2] = test system: Klebsiella pneumoniae W75-2; assay: In vitro MIC, agar dilution, Klebsiella pneumoniae W75-2; conditions: read-out: Minimal Inhibitory Concentration
Procedure: as §1

Serratia marcens QHC77-2 = assay: In vitro MIC, agar dilution, Serratia marcens QHC77-2; conditions: read-out: Minimal Inhibitory Concentration
Procedure: as §1

[3] = test system: Klebsiella pneumoniae W75-4; assay: In vitro MIC, agar dilution, Klebsiella pneumoniae W75-4; conditions: read-out: Minimal Inhibitory Concentration
Procedure: as §1

Enterococcus SM77-15 = assay: In vitro MIC, agar dilution, Enterococcus SM77-15; conditions: read-out: Minimal Inhibitory Concentration
Procedure: as §1

[4] = test system: Pseudomonas aeruginosa PD05141; assay: In vitro MIC, agar dilution, Pseudomonas aeruginosa PD05141; conditions: read-out: Minimal Inhibitory Concentration
Procedure: as §1

Serratia K101 = assay: In vitro MIC, agar dilution, Serratia K101; conditions: read-out: Minimal Inhibitory Concentration
Procedure: as §1

[5] = test system: Staphylococcus aureus Q74-6; assay: In vitro MIC, agar dilution, Staphylococcus aureus Q74-6; conditions: read-out: Minimal Inhibitory Concentration
Procedure: as §1

[6] = test system: Pseudomonas aeruginosa 12-4-4; assay: In vitro MIC, agar dilution, Pseudomonas aeruginosa 12-4-4; conditions: read-out: Minimal Inhibitory Concentration
Procedure: as §1

[7] = test system: Pseudomonas aeruginosa G236; assay: In vitro MIC, agar dilution, Pseudomonas aeruginosa G236; conditions: read-out: Minimal Inhibitory Concentration
Procedure: as §1

Proteus rettgeri N76-1 = assay: In vitro MIC, agar dilution, Proteus rettgeri N76-1; conditions: Providencia rettgeri, read-out: Minimal Inhibitory Concentration
Procedure: as §1

Proteus morganii K72 = assay: In vitro MIC, agar dilution, Proteus morganii K72; conditions: Morganella morganii, read-out: Minimal Inhibitory Concentration
Procedure: as §1

Escherichia coli 311 = assay: In vitro MIC, agar dilution, Escherichia coli 311; conditions: 35° C., 18 hours, nutrient agar, read-out: Minimal Inhibitory Concentration
Procedure: as §1

[8] = test system: Enterobacter cloacae OSU75-2; assay: In vitro MIC, agar dilution, Enterobacter cloacae OSU75-2; conditions: read-out: Minimal Inhibitory Concentration
Procedure: as §1

[9] = test system: Escherichia coli ESS22-31; assay: In vitro MIC, agar dilution, Escherichia coli ESS22-31; conditions: read-out: Minimal Inhibitory Concentration
Procedure: as §1

Escherichia coli OSU75-1 = assay: In vitro MIC, agar dilution, Escherichia coli OSU75-1; conditions: OSU751, 35° C., 18 hours, nutrient agar, read-out: Minimal Inhibitory Concentration
Procedure: as §1

Klebsiella pneumoniae AD = assay: In vitro MIC, agar dilution, Klebsiella pneumoniae AD; conditions: read-out: Minimal Inhibitory Concentration
Procedure: as §1

[10] = test system: Staphylococcus aureus Q74-1; assay: In vitro MIC, agar dilution, Staphylococcus aureus Q74-1; conditions: read-out: Minimal Inhibitory Concentration
Procedure: as §1

Serratia marcens K77-1 = assay: In vitro MIC, agar dilution, Serratia marcens K77-1; conditions: read-out: Minimal Inhibitory Concentration
Procedure: as §1

[11] = test system: Enterobacter cloacae MA75-1; assay: In vitro MIC, agar dilution, Enterobacter cloacae MA75-1; conditions: read-out: Minimal Inhibitory Concentration
Procedure: as §1

Proteus vulgaris N74-1 = assay: In vitro MIC, agar dilution, Proteus vulgaris N74-1; conditions: N741, 35° C., 18 hours, nutrient agar, read-out: Minimal Inhibitory Concentration
Procedure: as §1

[12] = test system: Enterobacter aerogenes UR76-3; assay: In vitro MIC, agar dilution, Enterobacter aerogenes UR76-3; conditions: Klebsiella aerogenes, read-out: Minimal Inhibitory Concentration
Procedure: as §1

[13] = test system: Pseudomonas aeruginosa UCS 76-13; assay: In vitro MIC, agar dilution, Pseudomonas aeruginosa UCS 76-13; conditions: read-out: Minimal Inhibitory Concentration
Procedure: as §1

[14] = test system: Klebsiella pneumoniae MA75-1; assay: In vitro MIC, agar dilution, Klebsiella pneumoniae MA75-1; conditions: read-out: Minimal Inhibitory Concentration
Procedure: as §1

Escherichia coli W75-1 = assay: In vitro MIC, agar dilution, Escherichia coli W75-1; conditions: W751, 35° C., 18 hours, nutrient agar, read-out: Minimal Inhibitory Concentration
Procedure: as §1

For `CCN1CCN(C(=O)NC(C(=O)NC2C(=O)N3C(C(=O)O)=C(CSc4nnc(-n5cccn5)n4N)CS[C@H]23)c2ccc(O)cc2)C(=O)C1=O` (stereo partly shown) [Compound VII, 7-[2-(4-Ethyl-2,3-dioxo-1-piperazinecarboxamido)-2-(p-hydroxyphenyl)acetamido]-3-[4-amino-5-(1-pyrazolyl)-1,2,4-triazol-3-ylthiomethyl]-3-cephem-4-carboxylic acid], the MIC ([1]; UR761, Klebsiella pneumoniae UR76-1, agar dilution, 35° C., 18 hours, nutrient agar) was 16 µg/mL (≈ 22.5 µM), the MIC ([2]; W752, Klebsiella pneumoniae W75-2, agar dilution, 35° C., 18 hours, nutrient agar) was 2 µg/mL (≈ 2.81 µM) and the MIC (Serratia marcens QHC77-2; QHC772, Serratia marcens QHC77-2, agar dilution, 35° C., 18 hours, nutrient agar) was 128 µg/mL (≈ 180 µM). It also gave an MIC ([3]; W754, Klebsiella pneumoniae W75-4, agar dilution, 35° C., 18 hours, nutrient agar) of 32 µg/mL (≈ 45 µM), an MIC (Enterococcus SM77-15; SM7715, Enterococcus SM77-15, agar dilution, 35° C., 18 hours, nutrient agar) of 128 µg/mL (≈ 180 µM) and an MIC ([4]; Pseudomonas aeruginosa PD05141, agar dilution, 35° C., 18 hours, nutrient agar) of 64 µg/mL (≈ 89.9 µM). It also gave an MIC (Serratia K101; Serratia K101, agar dilution, 35° C., 18 hours, nutrient agar) of 32 µg/mL (≈ 45 µM), an MIC ([5]; Q746, Staphylococcus aureus Q74-6, agar dilution, 35° C., 18 hours, nutrient agar) of 4 µg/mL (≈ 5.62 µM) and an MIC ([6]; 1244, Pseudomonas aeruginosa 12-4-4, agar dilution, 35° C., 18 hours, nutrient agar) of 16 µg/mL (≈ 22.5 µM). It also gave an MIC ([7]; Pseudomonas aeruginosa G236, agar dilution, 35° C., 18 hours, nutrient agar) of 32 µg/mL (≈ 45 µM), an MIC (Proteus rettgeri N76-1; N761, Proteus rettgeri N76-1, agar dilution, 35° C., 18 hours, nutrient agar) of 8 µg/mL (≈ 11.2 µM) and an MIC (Proteus morganii K72; Proteus morganii K72, agar dilution, 35° C., 18 hours, nutrient agar) of 32 µg/mL (≈ 45 µM). It also gave an MIC (Escherichia coli 311) of 0.5 µg/mL (≈ 0.703 µM), an MIC ([8]; OSU752, Enterobacter cloacae OSU75-2, agar dilution, 35° C., 18 hours, nutrient agar) of 16 µg/mL (≈ 22.5 µM) and an MIC ([9]; ESS2231, Escherichia coli ESS22-31, agar dilution, 35° C., 18 hours, nutrient agar) of no more than 0.12 µg/mL. The MIC (Escherichia coli OSU75-1) was 1 µg/mL (≈ 1.41 µM), the MIC (Klebsiella pneumoniae AD; Klebsiella pneumoniae AD, agar dilution, 35° C., 18 hours, nutrient agar) was 1 µg/mL (≈ 1.41 µM) and the MIC ([10]; Q741, Staphylococcus aureus Q74-1, agar dilution, 35° C., 18 hours, nutrient agar) was 2 µg/mL (≈ 2.81 µM). The MIC (Serratia marcens K77-1; K771, Serratia marcens K77-1, agar dilution, 35° C., 18 hours, nutrient agar) was 64 µg/mL (≈ 89.9 µM), the MIC ([11]; MA751, Enterobacter cloacae MA75-1, agar dilution, 35° C., 18 hours, nutrient agar) was greater than 128 µg/mL and the MIC (Proteus vulgaris N74-1) was 32 µg/mL (≈ 45 µM). For the same molecule, the MIC ([12]; UR763, Enterobacter aerogenes UR76-3, agar dilution, 35° C., 18 hours, nutrient agar) was 0.25 µg/mL (≈ 0.351 µM), the MIC ([13]; UCS7613, Pseudomonas aeruginosa UCS 76-13, agar dilution, 35° C., 18 hours, nutrient agar) was 64 µg/mL (≈ 89.9 µM) and the MIC ([14]; MA751, Klebsiella pneumoniae MA75-1, agar dilution, 35° C., 18 hours, nutrient agar) was 1 µg/mL (≈ 1.41 µM). For the same molecule, the MIC (Escherichia coli W75-1) was 1 µg/mL (≈ 1.41 µM).

Molecule `CC(=O)OCC1=C(C(=O)O)N2C(=O)[C@@H](NC(=O)Cc3cccs3)[C@H]2SC1` [Compound X, Cephalothin, reference compound] has an MIC ([1]; Klebsiella pneumoniae, UR761, 18 h) of 8 µg/mL (≈ 20.2 µM), an MIC ([2]; Klebsiella pneumoniae, W752, 18 h) of 2 µg/mL (≈ 5.04 µM) and an MIC (Serratia marcens QHC77-2; Serratia, QHC772, 18 h) greater than 128 µg/mL. It also gave an MIC ([3]; Klebsiella pneumoniae, W754, 18 h) of 8 µg/mL (≈ 20.2 µM), an MIC (Enterococcus SM77-15; Enterococcus, SM7715, 18 h) of 32 µg/mL (≈ 80.7 µM) and an MIC ([4]; Pseudomonas aeruginosa, PD05141, 18 h) greater than 128 µg/mL. The MIC (Serratia K101; Serratia, K101, 18 h) was greater than 128 µg/mL, the MIC ([5]; Staphylococcus aureus, Q746, 18 h) was 0.12 µg/mL (≈ 0.303 µM) and the MIC ([6]; Pseudomonas aeruginosa, 1244, 18 h) was greater than 128 µg/mL. It also gave an MIC ([7]; Pseudomonas aeruginosa, G236, 18 h) greater than 128 µg/mL, an MIC (Proteus rettgeri N76-1; N761, 18 h) greater than 128 µg/mL and an MIC (Proteus morganii K72; K72, 18 h) greater than 128 µg/mL. For the same molecule, the MIC (Escherichia coli 311) was 4 µg/mL (≈ 10.1 µM), the MIC ([8]; Enterobacter cloacae, OSU752, 18 h) was greater than 128 µg/mL and the MIC ([9]; Escherichia coli, ESS2231, 18 h) was no more than 0.06 µg/mL. The MIC (Escherichia coli OSU75-1) was 8 µg/mL (≈ 20.2 µM), the MIC (Klebsiella pneumoniae AD; Klebsiella pneumoniae, 18 h) was 2 µg/mL (≈ 5.04 µM) and the MIC ([10]; Staphylococcus aureus, Q741, 18 h) was no more than 0.06 µg/mL. For the same molecule, the MIC (Serratia marcens K77-1; Serratia, K771, 18 h) was greater than 128 µg/mL, the MIC ([11]; Enterobacter cloacae, MA751, 18 h) was greater than 128 µg/mL and the MIC ([12]; UR763, 18 h) was 2 µg/mL (≈ 5.04 µM). It also gave an MIC ([13]; Pseudomonas aeruginosa, UCS7613, 18 h) greater than 128 µg/mL, an MIC ([14]; Klebsiella pneumoniae, MA751, 18 h) of 1 µg/mL (≈ 2.52 µM) and an MIC (Escherichia coli W75-1) of 8 µg/mL (≈ 20.2 µM).
